Assays:
[1] = tested on: P388/ADR cell lines (overexpress the multidrug resistance pump MDR-1); experiment: Multidrug resistant cell assay, cell viability by ATP-lite; format: cell-based, murine
Excerpt: Cytotoxicity of compounds in multidrug resistant cells can be determined by administering compounds to cell lines that overexpress the multidrug resistance pump MDR-1 and determining the viability of the cell lines. P388/ADR cell lines are known to overexpress the multidrug resistance pump MDR-1 (also known as P-glycoprotein-1; Pgp-1).
P388/ADR cell lines are obtained from American Type Culture Collection (Manassas, Va.) and maintained in RPMI-1640 media supplemented with 10% FCS, 10 units/mL penicillin and streptomycin, 2 mM Glutamax and 1 mM sodium pyruvate (Invitrogen Corporation, Carlsbad, Calif.). For compound testing, cells are plated in 96 well dishes at a concentration of 1.5×10^4 cells/well. Cells are allowed to adhere to the plate overnight and then incubated with compounds at final concentrations ranging from 0.13 nM to 10 μM for 72 hours. Cell viability is then assessed using the ATP-lite reagent (Perkin Elmer, Foster City, Calif.). Plates are read on a Wallac Topcount luminescence reader (Perkin Elmer, Foster City, Calif.) and the results graphed in Prism software (Graphpad Software, Inc., San Diego, Calif.). Non-linear regression with variable slope analysis is performed to obtain IC50 concentration values.

[2] = tested on: P388 murine leukemia cell line; experiment: P388 cytotoxicity, cellular viability by ATP-Lite; format: cell-based; conditions: compound concentration required to inhibit growth by 50%, intracellular ATP
Protocol: A P388 murine leukemia cell line was obtained from NCI, Frederick, Md. P388 cells were cultured in RPMI-1640 supplemented with 10% fetal bovine serum, 2 mM Glutamax, 1 mM sodium pyruvate, 0.1 mM non-essential amino acids and 10 mM HEPES. Cells were grown at 37° C. in a humidified 5% CO2 atmosphere. Exponentially growing P388 cells were plated at 5,000 cells/well in a 96-well flat-bottomed microtiter plate (Corning, Costar #3595). […] Cellular viability was determined 72 hours later by measuring intracellular ATP with ATP-Lite assay system. The effect of compounds on cell viability was calculated by comparing the ATP levels of cells exposed to test compound with those of cells exposed to DMSO. A semi-log plot of relative ATP levels versus compound concentration was used to calculate the compound concentration required to inhibit growth by 50% (IC50). Data was analyzed by Prism software (GraphPad; San Diego, Calif.) by fitting it to a sigmoidal dose response curve.

[3] = Mus musculus, 72 h, multidrug resistant cells overexpressing MDR-1

Compound	IC50 [1, 3] [nM]	IC50 ([2]; Mus musculus, P388, 72 h) [nM]	IC50 ([2]; 72 hours) [nM]	IC50 ([1]; multidrug resistant cells overexpressing MDR-1, 72 hours) [nM]
CCOCCOCCOCCOc1nc(N(C)c2ccc(OC)cc2)c2ccccc2n1 [Example 7, (2-{2-[2-(2-Ethoxy-ethoxy)-ethoxy]-ethoxy}-quinazolin-4-yl)-(4-methoxy-phenyl)-methyl-amine]	520	1400		
COCCOCCOC(=O)OCCNc1nc(N(C)c2ccc(OC)cc2)c2ccccc2n1 [Example 8, Carbonic acid 2-(2-methoxy-ethoxy)-ethyl ester 2-{4-[(4-methoxy-phenyl)-methyl-amino]-quinazolin-2-ylamino}-ethyl ester]	30	25		
COc1ccc(N(C)c2nc(NCCNC(=O)CNC(=O)OC(C)(C)C)nc3ccccc23)cc1 [Example 31, [(2-{4-[(4-Methoxy-phenyl)-methyl-amino]-quinazolin-2-ylamino}-ethylcarbamoyl)-methyl]-carbamic acid tert-butyl ester]	1100	1300		
COc1ccc(N(C)c2nc(CNC(=O)[C@H](C)NC(=O)OC(C)(C)C)nc3ccccc23)cc1 [Example 50, [(S)-1-({4-[(4-Methoxy-phenyl)-methyl-amino]-quinazolin-2-ylmethyl}-carbamoyl)-ethyl]-carbamic acid tent-butyl ester]	190	180		
COc1ccc(N(C)c2nc(NCCOCCOCCN)nc3ccccc23)cc1 [Example 3, N^2-{2-[2-(2-Amino-ethoxy)-ethoxy]-ethyl}-N^4-(4-methoxy-phenyl)-N^4-methyl-quinazoline-2,4-diamine]	2000	1400		
COc1ccc(N(C)c2nc(N[C@@H](C)[C@H](O)c3ccccc3)nc3ccccc23)cc1 [Example 24, (1R,2S)-2-{4-[(4-Methoxy-phenyl)-methyl-amino]-quinazolin-2-ylamino}-1-phenyl-propan-1-ol]	1700	1600		
COc1ccc(N(C)c2nc(N[C@@H](CO)Cc3ccccc3)nc3ccccc23)cc1 [Example 25, (R)-2-{4-[(4-Methoxy-phenyl)-methyl-amino]-quinazolin-2-ylamino}-3-phenyl-propan-1-ol]	1800	1800		
COc1ccc(N(C)c2nc(NCC(O)CN)nc3ccccc23)cc1 (centres unmarked) [Example 44, 1-Amino-3-{4-[(4-methoxy-phenyl)-methyl-amino]-quinazolin-2-ylamino}-propan-2-ol]	57	37		
COc1ccc(N(C)c2nc(CNC(=O)OC(COC(C)=O)COC(C)=O)nc3ccccc23)cc1 [Example 55, Acetic acid 3-acetoxy-2-{4-[(4-methoxy-phenyl)-methyl-amino]-quinazolin-2-ylmethylcarbamoyloxy}-propyl ester]	450	330		
COC(=O)[C@H](Cc1ccc(O)cc1)Nc1nc(N(C)c2ccc(OC)cc2)c2ccccc2n1 [Example 34, (S)-3-(4-Hydroxy-phenyl)-2-{4-[(4-methoxy-phenyl)-methyl-amino]-quinazolin-2-ylamino}-propionic acid methyl ester]	43	36		
COCCOCCOCCOc1nc(N(C)c2ccc(OC)cc2)c2ccccc2n1 [Example 2, (2-{2-[2-(2-Methoxy-ethoxy)-ethoxy]-ethoxy}-quinazolin-4-yl)-(4-methoxy-phenyl)-methyl-amine]	74	65		
COc1ccc(N(C)c2nc(NCCOC(=O)CN)nc3ccccc23)cc1 [Example 13, Amino-acetic acid 2-{4-[(4-methoxy-phenyl)-methyl-amino]-quinazolin-2-ylamino}-ethyl ester]	18	15		
COCCOCCOc1nc(N(C)c2ccc(OC)cc2)c2ccccc2n1 [Example 1, {2-[2-(2-Methoxy-ethoxy)-ethoxy]-quinazolin-4-yl}-(4-methoxy-phenyl)-methyl-amine]	580	490		
COc1ccc(N(C)c2nc(CNC(=O)[C@@H](C)NC(=O)OC(C)(C)C)nc3ccccc23)cc1 [Example 53, [(R)-1-({4-[(4-Methoxy-phenyl)-methyl-amino]-quinazolin-2-ylmethyl}-carbamoyl)-ethyl]-carbamic acid tert-butyl ester]	680	457		
COc1ccc(N(C)c2nc(NCCNC(=O)OCc3ccccc3)nc3ccc(OC)cc23)cc1 [Example 17, (2-{6-Methoxy-4-[(4-methoxy-phenyl)-methyl-amino]-quinazolin-2-ylamino}-ethyl)-carbamic acid benzyl ester]	8500	4500	3000	
COc1ccc(N(C)c2nc(CNC(=O)[C@H](CC(N)=O)NC(=O)OC(C)(C)C)nc3ccccc23)cc1 [Example 51, [(S)-2-Carbamoyl-1-({4-[(4-methoxy-phenyl)-methyl-amino]-quinazolin-2-ylmethyl}-carbamoyl)-ethyl]-carbamic acid tent-butyl ester]	970	620		
COc1ccc(N(C)c2nc(CNC(=O)OC(C)OC(=O)C(C)C)nc3ccccc23)cc1 (centres unmarked) [Example 49, Isobutyric acid 1-{4-[(4-methoxy-phenyl)-methyl-amino]-quinazolin-2-ylmethylcarbamoyloxy}-ethyl ester]	13	5.5		
COc1ccc(N(C)c2nc(NCCNC(N)=O)nc3ccccc23)cc1 [Example 40, (2-{4-[(4-Methoxy-phenyl)-methyl-amino]-quinazolin-2-ylamino}-ethyl)-urea]	600	500		
COC(=O)NCCNc1nc(N(C)c2ccc(OC)cc2)c2cc(C)ccc2n1 [Example 30, (2-{4-[(4-Methoxy-phenyl)-methyl-amino]-6-methyl-quinazolin-2-ylamino}-ethyl)-carbamic acid methyl ester]	160	85		
COc1ccc(N(C)c2nc(NCCNC(=O)OC(C)(C)C)nc3ccc(OC)cc23)cc1 [Example 16, (2-{6-Methoxy-4-[(4-methoxy-phenyl)-methyl-amino]-quinazolin-2-ylamino}-ethyl)-carbamic acid tent-butyl ester]	3400	4000	2400	2000
COc1ccc(N(C)c2nc(NCCOC(=O)[C@@H](N)CCSC)nc3ccccc23)cc1 [Example 27, (S)-2-Amino-4-methylsulfanyl-butyric acid 2-{4-[(4-methoxy-phenyl)-methyl-amino]-quinazolin-2-ylamino}-ethyl ester]	220	220		
COc1ccc(N(C)c2nc(CNS(=O)(=O)c3ccc(OC)cc3)nc3ccccc23)cc1 [Example 45, 4-Methoxy-N-{4-[(4-methoxy-phenyl)-methyl-amino]-quinazolin-2-ylmethyl}-benzenesulfonamide]	1800	1700		
COc1ccc(N(C)c2nc(NCCNC(C)=O)nc3ccccc23)cc1OC [Example 20, N-(2-{4-[(3,4-Dimethoxy-phenyl)-methyl-amino]-quinazolin-2-ylamino}-ethyl)-acetamide]	9400	1700	1100	
